Source: PubChem BioAssay (NCI)
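Method: 48-hour compound exposure of cells in 96-well plates, five concentrations, linear interpolation of endpoints. GI50 marks 50% less growth. Definition used: TGI = concentration required for complete inhibition of growth.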

Tests used:
Assay in all cases: NCI anticancer screen, dose series, 48 h
[1] = tested on: SW-620 colon
[2] = tested on: RPMI-8226 leukemia
[3] = tested on: ACHN renal
[4] = tested on: SK-MEL-28 melanoma
[5] = tested on: NCI/ADR-RES ovarian
[6] = tested on: U251 CNS
[7] = tested on: HT29 colon
[8] = tested on: T-47D breast
[9] = tested on: RXF 393 renal
[10] = tested on: SF-268 CNS

Cc1cc(C)c2c(=O)n(CN3CC4Nc5ccccc5C4C3)sc2n1 (stereo not given)
TGI [1]: 63.7 µM
TGI [2]: > 100 µM
TGI [3]: 33.8 µM
TGI [4]: 82.3 µM
TGI [5]: > 100 µM
TGI [6]: > 100 µM
TGI [7]: 46.1 µM
TGI [8]: > 100 µM
TGI [9]: 40.4 µM
TGI [10]: 54.1 µM

COc1cc(/C=C/C(=O)O)ccc1C(=O)O/C=C/c1ccccc1
TGI [1]: > 100 µM
TGI [2]: > 100 µM
TGI [4]: > 100 µM
TGI [5]: > 100 µM
TGI [6]: > 100 µM
TGI [7]: > 100 µM
TGI [9]: > 100 µM
TGI [10]: > 100 µM

CC(C)=CCc1c2c(c3occ(-c4ccc(O)c(O)c4)c(=O)c3c1O)C=CC(C)(C)O2
TGI [1]: 2.36 µM
TGI [2]: 4.04 µM
TGI [3]: 6.29 µM
TGI [4]: 8.66 µM
TGI [5]: 5.87 µM
TGI [6]: 2.8 µM
TGI [7]: 3.84 µM
TGI [8]: 10.5 µM
TGI [9]: 4.14 µM
TGI [10]: 4.93 µM

CCN(CC)CCOC(NC(C)=O)(c1ccccc1)c1ccccc1
TGI [1]: > 100 µM
TGI [2]: > 100 µM
TGI [3]: > 100 µM
TGI [4]: > 100 µM
TGI [5]: > 100 µM
TGI [6]: > 100 µM
TGI [7]: > 100 µM
TGI [8]: > 100 µM
TGI [9]: > 100 µM
TGI [10]: > 100 µM

COc1ccc(Nc2nc3ccc(C(F)(F)F)cc3nc2C(=O)O)cc1OC
TGI [1]: > 100 µM
TGI [3]: > 100 µM
TGI [4]: > 100 µM
TGI [5]: 57.5 µM
TGI [6]: > 100 µM
TGI [7]: > 100 µM
TGI [9]: > 100 µM
TGI [10]: > 100 µM

C[n+]1c(-c2ccccc2)cc2/c(=C\c3ccc([N+](=O)[O-])cc3)c3ccccc3n21
TGI [1]: 29 µM
TGI [2]: > 100 µM
TGI [3]: > 38.5 µM
TGI [4]: 24 µM
TGI [5]: > 100 µM
TGI [6]: 19.8 µM
TGI [7]: > 32.6 µM
TGI [9]: 19.5 µM
TGI [10]: 29.1 µM

CN(C)c1nc(=NCc2ccncc2)ss1
TGI [1]: 50.7 µM
TGI [2]: 53.1 µM
TGI [3]: 18.7 µM
TGI [4]: > 93.9 µM
TGI [5]: > 100 µM
TGI [6]: 32.1 µM
TGI [7]: 38.5 µM
TGI [8]: > 51.8 µM
TGI [9]: 92.7 µM
TGI [10]: > 100 µM

O=C(Nc1cccc2cnccc12)c1cc2c(cc1Cl)Sc1nccn1S2(=O)=O
TGI [1]: 50.8 µM
TGI [2]: 38.6 µM
TGI [3]: 77.9 µM
TGI [4]: 53.1 µM
TGI [5]: 57.8 µM
TGI [6]: 32.1 µM
TGI [7]: 48.3 µM
TGI [8]: 40.8 µM
TGI [9]: 24.4 µM
TGI [10]: 42.2 µM

C=C(Cl)/C(=C\Cl)CCC(Br)C(C)C (stereo not given)
TGI [1]: 37.9 µM
TGI [2]: > 100 µM
TGI [3]: > 100 µM
TGI [4]: > 100 µM
TGI [5]: > 100 µM
TGI [6]: > 100 µM
TGI [7]: > 100 µM
TGI [9]: > 100 µM
TGI [10]: > 100 µM

COc1cccc(-c2cc(=O)c3c(C)cc(C)nc3[nH]2)c1
TGI [1]: > 100 µM
TGI [2]: 6.09 µM
TGI [3]: > 100 µM
TGI [4]: > 100 µM
TGI [5]: > 100 µM
TGI [6]: > 88.6 µM
TGI [8]: > 100 µM
TGI [9]: > 100 µM
TGI [10]: 36.2 µM

O=C1c2ccccc2CN1c1ccc(O)cc1
TGI [1]: > 100 µM
TGI [2]: > 100 µM
TGI [3]: > 100 µM
TGI [4]: > 100 µM
TGI [5]: > 100 µM
TGI [6]: > 100 µM
TGI [7]: > 100 µM
TGI [8]: > 100 µM
TGI [9]: > 100 µM
TGI [10]: > 100 µM

N#Cc1c(-c2ccccc2)/c(=C\Nc2ccc(Cl)cc2)c(=O)n2c1nc1ccccc12
TGI [1]: > 100 µM
TGI [2]: 45.9 µM
TGI [3]: > 100 µM
TGI [4]: > 100 µM
TGI [5]: > 100 µM
TGI [6]: > 100 µM
TGI [8]: > 100 µM
TGI [9]: > 100 µM
TGI [10]: > 100 µM

CCCCCCCCCC[C@H](O)[C@H]1CC[C@H]([C@H]2CC[C@H]([C@H](O)CC[C@H](O)CCCCCCC[C@@H](O)CC3=C[C@H](C)OC3=O)O2)O1
GI50 [1]: > 100 µM
TGI [1]: > 100 µM
TGI [2]: 10.5 µM
GI50 [3]: 10 µM
TGI [3]: > 100 µM
GI50 [4]: > 100 µM
TGI [4]: > 100 µM
GI50 [5]: 16.5 µM
TGI [5]: > 100 µM
GI50 [6]: > 100 µM
TGI [6]: > 100 µM
GI50 [8]: 2.17 µM
TGI [8]: > 100 µM
TGI [9]: 88 µM
GI50 [10]: > 100 µM
TGI [10]: > 100 µM

OC[C@@H](O)[C@H]1NC[C@@H](O)[C@H]1O
TGI [1]: > 100 µM
TGI [2]: > 100 µM
TGI [3]: > 100 µM
TGI [4]: > 100 µM
TGI [6]: > 100 µM
TGI [7]: > 100 µM
TGI [9]: > 100 µM
TGI [10]: > 100 µM

CC(=O)N/N=C1/NN(C(C)=O)C2(S1)C(=O)Nc1ccc(Br)cc12 (stereo not given)
TGI [2]: > 100 µM
TGI [3]: > 100 µM
TGI [4]: > 100 µM
TGI [5]: > 100 µM
TGI [6]: > 100 µM
TGI [7]: > 100 µM
TGI [8]: > 100 µM
TGI [9]: > 100 µM
TGI [10]: > 100 µM

CC(=O)OC[C@]1(C(=O)C(O)c2ccoc2)[C@H](C)CC[C@@]23COC(=O)C2=CCC[C@@H]31 (stereo not given in full)
TGI [1]: > 10 µM
TGI [2]: > 10 µM
TGI [3]: > 10 µM
TGI [5]: > 10 µM
TGI [6]: > 10 µM
TGI [7]: > 10 µM
TGI [8]: > 10 µM
TGI [9]: > 10 µM
TGI [10]: > 10 µM

CC(=O)NS(=O)(=O)c1ccc(NC(=O)c2c3ccccc3nc3ccccc23)cc1
TGI [1]: > 100 µM
TGI [2]: > 100 µM
TGI [3]: > 100 µM
TGI [4]: > 100 µM
TGI [5]: > 100 µM
TGI [6]: > 100 µM
TGI [7]: > 100 µM
TGI [10]: > 100 µM

CC(C)(C)N=c1n(C(C)(C)C)oc(=O)n1C(C)(C)C
TGI [1]: > 100 µM
TGI [3]: > 100 µM
TGI [4]: > 100 µM
TGI [5]: > 100 µM
TGI [6]: > 100 µM
TGI [7]: > 100 µM
TGI [9]: > 100 µM

CCCCOC(C)(C)/C=C/C(O)[C@](C)(O)[C@H]1[C@H](O)C[C@@]2(C)[C@@H]3CCc4c(cc(OC5OC(CO)C(O)C(O)C5O)c(O)c4C)C3(C)C(=O)C[C@]12C (stereo not given in full)
TGI [1]: > 100 µM
TGI [3]: > 100 µM
TGI [4]: > 100 µM
TGI [5]: > 100 µM
TGI [6]: > 100 µM
TGI [7]: > 100 µM
TGI [8]: > 100 µM
TGI [9]: > 100 µM
TGI [10]: > 100 µM

O=C(O)C1CC(c2ccc(F)cc2)=Nc2ccc(F)cc2S1 (stereo not given)
TGI [1]: > 100 µM
TGI [2]: > 100 µM
TGI [3]: > 100 µM
TGI [4]: > 100 µM
TGI [5]: > 100 µM
TGI [7]: > 100 µM
TGI [8]: > 100 µM
TGI [9]: > 100 µM
TGI [10]: > 100 µM

O=C(CN1CCCCC1)CC(O)(C(F)(F)F)C(F)(F)F
TGI [1]: > 100 µM
TGI [2]: > 100 µM
TGI [3]: > 100 µM
TGI [4]: > 100 µM
TGI [5]: > 100 µM
TGI [6]: > 100 µM
TGI [7]: > 100 µM
TGI [8]: > 100 µM
TGI [9]: > 100 µM

COc1cc2c(cc1OC)C1c3ccccc3CCN1CC2 (stereo not given)
TGI [1]: > 100 µM
TGI [3]: > 100 µM
TGI [4]: > 100 µM
TGI [5]: > 100 µM
TGI [6]: > 100 µM
TGI [7]: > 100 µM
TGI [8]: > 100 µM
TGI [9]: > 100 µM
TGI [10]: > 100 µM
